Results taken from BigSolDB 2.1.

Cc1c(C(=O)O)cccc1[N+](=O)[O-]
solubility (mole fraction)
Conditions | 278.15 K | 283.15 K | 288.15 K | 293.15 K | 298.15 K | 303.15 K | 308.15 K | 313.15 K
in 1,4-dioxane | – | – | 0.0933 | 0.102 | 0.112 | 0.121 | 0.132 | 0.143
in DMF | 0.147 | 0.166 | 0.191 | 0.217 | 0.244 | 0.275 | 0.31 | 0.35
in acetonitrile | 0.00434 | 0.00523 | 0.00624 | 0.00737 | 0.00879 | 0.0104 | 0.0122 | 0.0143
in ethanol | 0.0152 | 0.0181 | 0.0216 | 0.0254 | 0.0297 | 0.0349 | 0.041 | 0.0478
in ethyl acetate | 0.0228 | 0.0258 | 0.0297 | 0.0336 | 0.0378 | 0.0426 | 0.0478 | 0.0538
in isobutanol | 0.00938 | 0.0114 | 0.014 | 0.0166 | 0.0201 | 0.024 | 0.028 | 0.033
in isopropanol | 0.0133 | 0.0161 | 0.019 | 0.0224 | 0.0266 | 0.0314 | 0.0362 | 0.0426
in isopropyl acetate | 0.0146 | 0.017 | 0.0196 | 0.023 | 0.027 | 0.031 | 0.0361 | 0.0413
in methanol | 0.0136 | 0.016 | 0.0193 | 0.0225 | 0.0264 | 0.0312 | 0.0367 | 0.0424
in methyl acetate | 0.0265 | 0.0302 | 0.0338 | 0.038 | 0.0428 | 0.0483 | 0.0539 | 0.06
in n-butanol | 0.0178 | 0.0213 | 0.0255 | 0.0308 | 0.0366 | 0.0434 | 0.0515 | 0.0608
in n-butyl acetate | 0.0165 | 0.0191 | 0.0227 | 0.0261 | 0.0296 | 0.034 | 0.039 | 0.0446
in n-propanol | 0.016 | 0.019 | 0.0227 | 0.027 | 0.032 | 0.0379 | 0.0441 | 0.0519
in n-propyl acetate | 0.0191 | 0.0221 | 0.0251 | 0.0293 | 0.0335 | 0.038 | 0.0432 | 0.049
